In patent publication US20060069132A1, “Azolecarboxamide herbicides” (priority 2004, published 2006):

Tests used:
blackgrass = experiment: Test B postemergence herbicide test; type: in vivo, Alopecurus myosuroides; settings: postemergence
In short: (§1)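 Treated at 2-leaf (paddy) or 1–4-leaf, 2–18 cm (postemergence); greenhouse 13–15 d; visual score vs control, 0 none to 100 complete control; dash = not tested.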

morningglory = experiment: Test B pre-/postemergence herbicide test; type: in vivo, Ipomoea coccinea; settings: for Morningglory plant response rating (0 to 100 scale) / Plant response rating, Morningglory: 0 = no effect, 100 = complete control, preemergence; for Morningglory plant response rating: postemergence
In short: (§2)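 Herbicidal effect was judged by eye on a 0–100 scale after plants stood 13 to 15 days in the greenhouse following pre- or postemergence treatment with surfactant-containing formulations.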

barnyardgrass [1] = experiment: Test B pre-/postemergence herbicide test; type: in vivo, Echinochloa crus-galli; settings: for Barnyardgrass plant response rating (0 to 100 scale) / Plant response rating, Barnyardgrass: 0 = no effect, 100 = complete control, preemergence; for Barnyardgrass plant response rating: postemergence
In short: as §2

[2] = test system: small flower umbrella sedge; experiment: Test B flooded paddy test; type: in vivo, Cyperus difformis; settings: 1000 g ai/ha, scale 0 to 100 (0 no effect, 100 complete control)
In short: as §1

cocklebur = experiment: Test B pre-/postemergence herbicide test; type: in vivo, Xanthium strumarium; settings: for Cocklebur plant response rating (0 to 100 scale) / Plant response rating, Cocklebur: 0 = no effect, 100 = complete control, preemergence; for Cocklebur plant response rating: postemergence
In short: as §2

barnyardgrass [3] = experiment: Test B flooded paddy test; type: in vivo, Echinochloa crus-galli; settings: 1000 g ai/ha, scale 0 to 100 (0 no effect, 100 complete control)
In short: as §1

wild oat = experiment: Test B postemergence herbicide test; type: in vivo, Avena fatua; settings: postemergence
In short: (§3)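 After treating 2-leaf paddy plants or 2–18 cm postemergence plants (1 to 4 leaves) with formulated chemical, researchers kept them in a greenhouse for 13–15 days. Effects were judged visually versus controls: 0 indicates none, 100 total control.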

pigweed = experiment: Test B pre-/postemergence herbicide test; type: in vivo, Amaranthus retroflexus; settings: for Pigweed plant response rating (0 to 100 scale) / Plant response rating, Pigweed: 0 = no effect, 100 = complete control, preemergence; for Pigweed plant response rating: postemergence
In short: (§4)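 Evaluation is visual, comparing treated with control plants on a scale where 0 means no effect and 100 means full control. Treatments were preemergence, or postemergence on seedlings 2–18 cm tall, and held 13–15 days in the greenhouse.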

giant foxtail = experiment: Test B pre-/postemergence herbicide test; type: in vivo, Setaria faberi; settings: for Foxtail, Giant plant response rating (0 to 100 scale) / Plant response rating, Foxtail, Giant: 0 = no effect, 100 = complete control, preemergence; for Foxtail, Giant plant response rating: postemergence
In short: as §4

large crabgrass = experiment: Test B pre-/postemergence herbicide test; type: in vivo, Digitaria sanguinalis; settings: for Crabgrass, Large plant response rating (0 to 100 scale) / Plant response rating, Crabgrass, Large: 0 = no effect, 100 = complete control, preemergence; for Crabgrass, Large plant response rating: postemergence
In short: as §4

rice = experiment: Test B flooded paddy test; type: in vivo, Oryza sativa; settings: 1000 g ai/ha, scale 0 to 100 (0 no effect, 100 complete control)
In short: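 Each value is a visual 0–100 response rating taken against controls 13 to 15 days after treatment in the greenhouse. Plants received formulated chemical postemergence at the 1- to 4-leaf stage or, in flooded paddy, at the 2-leaf stage.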

Surinam grass = experiment: Test B pre-/postemergence herbicide test; type: in vivo, Urochloa decumbens; settings: for Surinam Grass plant response rating (0 to 100 scale) / Plant response rating, Surinam Grass: 0 = no effect, 100 = complete control, preemergence; for Surinam Grass plant response rating: postemergence
In short: as §4

lambsquarters = experiment: Test B pre-/postemergence herbicide test; type: in vivo, Chenopodium album; settings: for Lambsquarters plant response rating (0 to 100 scale) / Plant response rating, Lambsquarters: 0 = no effect, 100 = complete control, preemergence; for Lambsquarters plant response rating: postemergence
In short: as §4

velvetleaf = experiment: Test B pre-/postemergence herbicide test; type: in vivo, Abutilon theophrasti; settings: for Velvetleaf plant response rating: postemergence; for Plant response rating, Velvetleaf: 0 = no effect, 100 = complete control, preemergence
In short: as §4

wheat = experiment: Test B postemergence herbicide test; type: in vivo, Triticum aestivum; parameters: key to Wheat plant response rating: 0 = no effect, 100 = complete control; settings: postemergence
In short: as §3

[4] = 125 g ai/ha, visual rating, scale 0 (no effect) to 100 (complete control)
[5] = 500 g ai/ha, scale 0 to 100, 0 is no effect, 100 is complete control

## CCn1nc(C(C)(C)C)cc1C(=O)Nc1ccc(OC)c(OC)c1 [Compound 298]
blackgrass; [4]
  Blackgrass plant response rating: 20
blackgrass; [5]
  Blackgrass plant response rating: 50
morningglory; 125 g ai/ha
  Morningglory plant response rating (0 to 100 scale): 10
morningglory; [4]
  Morningglory plant response rating: 60
morningglory; 500 g ai/ha, visual rating
  Plant response rating, Morningglory: 40
morningglory; [5]
  Morningglory plant response rating: 70
Barnyardgrass [1]; 125 g ai/ha
  Barnyardgrass plant response rating (0 to 100 scale): 70
Barnyardgrass [1]; [4]
  Barnyardgrass plant response rating: 10
Barnyardgrass [1]; 500 g ai/ha, visual rating
  Plant response rating, Barnyardgrass: 90
Barnyardgrass [1]; [5]
  Barnyardgrass plant response rating: 50
[2]
  Sedge, Umbrella plant response rating: 70
cocklebur; 125 g ai/ha
  Cocklebur plant response rating (0 to 100 scale): 0
cocklebur; [4]
  Cocklebur plant response rating: 20
cocklebur; 500 g ai/ha, visual rating
  Plant response rating, Cocklebur: 0
cocklebur; [5]
  Cocklebur plant response rating: 50
Barnyardgrass [3]
  Barnyardgrass plant response rating: 90
Wild oat; [4]
  Oat, Wild plant response rating: 30
Wild oat; [5]
  Oat, Wild plant response rating: 40
pigweed; 125 g ai/ha
  Pigweed plant response rating (0 to 100 scale): 100
pigweed; [4]
  Pigweed plant response rating: 80
pigweed; 500 g ai/ha, visual rating
  Plant response rating, Pigweed: 100
pigweed; [5]
  Pigweed plant response rating: 90
Giant foxtail; 125 g ai/ha
  Foxtail, Giant plant response rating (0 to 100 scale): 80
Giant foxtail; [4]
  Foxtail, Giant plant response rating: 10
Giant foxtail; 500 g ai/ha, visual rating
  Plant response rating, Foxtail, Giant: 100
Giant foxtail; [5]
  Foxtail, Giant plant response rating: 50
Large crabgrass; 125 g ai/ha
  Crabgrass, Large plant response rating (0 to 100 scale): 100
Large crabgrass; [4]
  Crabgrass, Large plant response rating: 20
Large crabgrass; 500 g ai/ha, visual rating
  Plant response rating, Crabgrass, Large: 100
Large crabgrass; [5]
  Crabgrass, Large plant response rating: 70
rice
  Rice plant response rating: 80
Surinam grass; 125 g ai/ha
  Surinam Grass plant response rating (0 to 100 scale): 80
Surinam grass; [4]
  Surinam Grass plant response rating: 20
Surinam grass; 500 g ai/ha, visual rating
  Plant response rating, Surinam Grass: 100
Surinam grass; [5]
  Surinam Grass plant response rating: 50
lambsquarters; 125 g ai/ha
  Lambsquarters plant response rating (0 to 100 scale): 100
lambsquarters; [4]
  Lambsquarters plant response rating: 40
lambsquarters; 500 g ai/ha, visual rating
  Plant response rating, Lambsquarters: 100
lambsquarters; [5]
  Lambsquarters plant response rating: 90
velvetleaf; [4]
  Velvetleaf plant response rating: 60
velvetleaf; 500 g ai/ha, visual rating
  Plant response rating, Velvetleaf: 60
velvetleaf; [5]
  Velvetleaf plant response rating: 60
wheat; [4]
  Wheat plant response rating: 20
wheat; [5]
  Wheat plant response rating: 30

## CCNC(=O)c1ccc(F)c(NC(=O)c2cc(C3(C)CC3)nn2CC)c1 [Compound 300]
blackgrass; [4]
  Blackgrass plant response rating: 10
blackgrass; [5]
  Blackgrass plant response rating: 30
morningglory; 125 g ai/ha
  Morningglory plant response rating (0 to 100 scale): 10
morningglory; [4]
  Morningglory plant response rating: 90
morningglory; 500 g ai/ha, visual rating
  Plant response rating, Morningglory: 60
morningglory; [5]
  Morningglory plant response rating: 90
Barnyardgrass [1]; 125 g ai/ha
  Barnyardgrass plant response rating (0 to 100 scale): 70
Barnyardgrass [1]; [4]
  Barnyardgrass plant response rating: 30
Barnyardgrass [1]; 500 g ai/ha, visual rating
  Plant response rating, Barnyardgrass: 90
Barnyardgrass [1]; [5]
  Barnyardgrass plant response rating: 50
[2]
  Sedge, Umbrella plant response rating: 90
cocklebur; 125 g ai/ha
  Cocklebur plant response rating (0 to 100 scale): 10
cocklebur; [4]
  Cocklebur plant response rating: 10
cocklebur; 500 g ai/ha, visual rating
  Plant response rating, Cocklebur: 20
cocklebur; [5]
  Cocklebur plant response rating: 50
Barnyardgrass [3]
  Barnyardgrass plant response rating: 90
Wild oat; [4]
  Oat, Wild plant response rating: 30
Wild oat; [5]
  Oat, Wild plant response rating: 30
pigweed; 125 g ai/ha
  Pigweed plant response rating (0 to 100 scale): 100
pigweed; [4]
  Pigweed plant response rating: 80
pigweed; 500 g ai/ha, visual rating
  Plant response rating, Pigweed: 100
pigweed; [5]
  Pigweed plant response rating: 90
Giant foxtail; 125 g ai/ha
  Foxtail, Giant plant response rating (0 to 100 scale): 80
Giant foxtail; [4]
  Foxtail, Giant plant response rating: 30
Giant foxtail; 500 g ai/ha, visual rating
  Plant response rating, Foxtail, Giant: 100
Giant foxtail; [5]
  Foxtail, Giant plant response rating: 30
Large crabgrass; 125 g ai/ha
  Crabgrass, Large plant response rating (0 to 100 scale): 100
Large crabgrass; [4]
  Crabgrass, Large plant response rating: 10
Large crabgrass; 500 g ai/ha, visual rating
  Plant response rating, Crabgrass, Large: 100
Large crabgrass; [5]
  Crabgrass, Large plant response rating: 30
rice
  Rice plant response rating: 90
Surinam grass; 125 g ai/ha
  Surinam Grass plant response rating (0 to 100 scale): 80
Surinam grass; [4]
  Surinam Grass plant response rating: 10
Surinam grass; 500 g ai/ha, visual rating
  Plant response rating, Surinam Grass: 100
Surinam grass; [5]
  Surinam Grass plant response rating: 10
lambsquarters; 125 g ai/ha
  Lambsquarters plant response rating (0 to 100 scale): 100
lambsquarters; [4]
  Lambsquarters plant response rating: 70
lambsquarters; 500 g ai/ha, visual rating
  Plant response rating, Lambsquarters: 100
lambsquarters; [5]
  Lambsquarters plant response rating: 80
velvetleaf; [4]
  Velvetleaf plant response rating: 40
velvetleaf; 500 g ai/ha, visual rating
  Plant response rating, Velvetleaf: 100
velvetleaf; [5]
  Velvetleaf plant response rating: 70
wheat; [4]
  Wheat plant response rating: 10
wheat; [5]
  Wheat plant response rating: 20
